Activity calls are given as the source filed them. The rule behind the calls is not given here.
Key:
BJAB [1] = experiment: Induction of mitochondrial permeability transition in human BJAB cells after 48 hrs; type: functional, cell-based
BJAB [2] = experiment: Induction of apoptosis of human BJAB cells as measured by DNA fragmentation at 100 uM after 72 hrs; type: functional
BJAB [3] = experiment: Loss of mitochondrial membrane potential in human BJAB cells at 100 uM; type: functional, cell-based
BJAB [4] = experiment: Antiproliferative activity against human BJAB cells after 24 hrs; type: functional
Leukemia cell [5] = experiment: Induction of apoptosis in ALL cells at 100 uM after 60 hrs; type: functional, cell-based; settings: Homo sapiens
Leukemia cell [6] = experiment: Induction of apoptosis in AML cells at 100 uM after 60 hrs; type: functional, cell-based; settings: Homo sapiens
BJAB [7] = experiment: Antiproliferative activity against human BJAB cells after 48 hrs; type: functional

SMILES: C=C1CC[C@@H]2[C@](C)(CCC[C@]2(C)C(=O)OC)[C@H]1CCC1=CCOC1=O [PINUSOLIDE]
- Activity (BJAB [1]): Dose-dependent effect
- Activity (BJAB [2]): 70%
- Activity (BJAB [3]): Active
- Activity (BJAB [4]): 44%
- Activity (Leukemia cell [5]): Active
- Activity (Leukemia cell [6]): Active
- Activity (BJAB [7]): 86%

Reference: ChEMBL document CHEMBL1146188, “Gram-scale synthesis of pinusolide and evaluation of its antileukemic potential” (2006)
